We go through 6 molecules from patent publication US9643952B2, “Pyridone compound” (KYOWA HAKKO KIRIN CO., LTD., priority 2012, dated 2017).

Structures are written as SMILES.

This test deals with dinitrofluorobenzene-induced auricle edema reaction. Nature of the test: Suppressive action on dinitrofluorobenzene-induced auricle edema reaction in mouse. In kind it is in vivo. The settings on record: for auricle edema suppression rate (%): BALE/c mice (female), test compound 1% (w/v %) in acetone applied to front and back of auricle (total 20 μL) 1 hr before and 3 hr after induction, auricle thickness 24 hr after induction; for suppressive action on auricle edema response (in words): BALE/c mice, 1% (w/v %) in acetone applied to auricle. As for the experimental part: BALE/c mice (female, supplied by CHARLES RIVER LABORATORIES JAPAN, INC.) were purchased at the age of 5 weeks. After quarantine and acclimation, mice showing smooth body weight increase and free of abnormality in appearance were used and the test was started at the age of 7 weeks. The mice were housed in a breeding room at room temperature 19-25° C., humidity 30-70%, 12 hr lighting per day (7 a.m.-7 p.m.) with 3 mice in each plastic gauge, and bred on with free ingestion of a commercially available solid feed and water. Two days before the test, the abdomen of the BALE/c mice was shaved, and the mice were immunized by applying 100 μL of a solution {concentration 0.5% [weight (w)/volume (v) %]} of dinitrofluorobenzene (manufactured by Nacalai Tesque) in acetone (manufactured by Wako Pure Chemical Industries, Ltd.) to the shaved part. The reaction was induced by applying dinitrofluorobenzene-acetone solution [concentration 0.2% (w/v %)] to the front and the back of auricle (10 μL to each, total 20 μL) on day 5 after the immunization. A test compound dissolved in acetone at concentration of 1% (w/v %) was administered by applying same to the front and the back of auricle (10 μL to each, total 20 μL) 1 hr before and 3 hr after induction of the reaction. After application, the applied part was air-dried with a dryer. The group applying administered with the test compound was taken as a test compound administration group, and the group applying administered with acetone as a solvent instead of the test compound was taken as a solvent administration group. Also, the group free of immunization and reaction induction but applying administered with acetone instead of the test compound was taken as a normal group. The thickness of auricle was measured using a dial thickness gauge (G-1A manufactured by OZAKI MFG. CO., LTD.) immediately before and 24 hr after induction of the reaction, and the difference thereof was taken as auricle edema. The suppression rate (%) of auricle edema was calculated according to the following formula. [formula]

As to `Cc1cc(C#N)ccc1Nc1c(C(=O)N2CCC(c3ccc(F)cc3)CC2)cn(C)c(=O)c1Cl` [Compound 100, 4-{3-chloro-5-[4-(4-fluorophenyl)piperidine-1-carbonyl]-1-methyl-2-oxo-1,2-dihydropyridin-4-ylamino}-3-methylbenzonitrile], the “auricle edema suppression rate (%)” value is 53% and the “suppressive action on auricle edema response (in words)” value (“suppressive action” for short) is reported as “showed a suppressive action on auricle edema response”.
For `Cc1c(Nc2ccc(F)cc2F)c(C(=O)N2CCC(c3ccc(F)cc3)CC2)cn(C)c1=O` [Compound 125, 4-(2,4-difluorophenylamino)-5-[4-(4-fluorophenyl)piperidine-1-carbonyl]-1,3-dimethylpyridin-2(1H)-one], in that order: 47% and “showed a suppressive action on auricle edema response”.
As to `COCCn1cc(C(=O)N2CCC(c3ccc(F)cc3)CC2)c(Nc2ccc(F)cc2F)c(Cl)c1=O` [Compound 144, 3-chloro-4-(2,4-difluorophenylamino)-5-[4-(4-fluorophenyl)piperidine-1-carbonyl]-1-(2-methoxyethyl)pyridin-2(1H)-one], the “auricle edema suppression rate (%)” value stood at 32%.
On to `Cn1cc(C(=O)N2CCC(c3ccc(F)cc3)CC2)c(Nc2ccc(S(C)(=O)=O)cc2F)c(Cl)c1=O` [Compound 145, 3-chloro-4-[2-fluoro-4-(methylsulfonyl)phenylamino]-5-[4-(4-fluorophenyl)piperidine-1-carbonyl]-1-methylpyridin-2(1H)-one], for which the “suppressive action” value is “showed a suppressive action on auricle edema response”.
For the molecule `Cc1ccc(Cl)cc1Nc1c(C(=O)N2CCC(c3ccc(F)cc3)CC2)cn(OCCO)c(=O)c1Cl` [Compound 204, 3-chloro-4-(5-chloro-2-methylphenylamino)-5-[4-(4-fluorophenyl)piperidine-1-carbonyl]-1-(2-hydroxyethoxyl)pyridin-2(1H)-one], the “auricle edema suppression rate (%)” value is given as 41% and the “suppressive action” value is on record as “showed a suppressive action on auricle edema response”.
In the same order, the values of `COCCn1cc(C(=O)N2CCC(c3ccc(F)cc3)CC2)c(Nc2ccc3scnc3c2)c(Cl)c1=O` [Compound 206, 4-(benzo[d]thiazol-5-ylamino)-3-chloro-5-[4-(4-fluorophenyl)piperidine-1-carbonyl]-1-(2-methoxyethyl)pyridin-2(1H)-one] are 30% and “showed a suppressive action on auricle edema response”.
